Drawing on US12478617B2, “Lipidated peptide inhibitors of interleukin-23 receptor” (JANSSEN BIOTECH, INC., priority 2021, dated 2025), this text covers ring closure, yield after HPLC and IC50 for eleven compounds.

Read-outs that look alike come from different tables or passages of the source. Positions of bridges follow the written chain, without caps; N, C: chain ends. Non-standard residues stand in square brackets, D forms with d. Residues, ends and D or L forms follow the SMILES beside them. *: point of attachment. CH3O(CH2CH2O)11CH2CH2CO = COCCOCCOCCOCCOCCOCCOCCOCCOCCOCCOCCOCCC(=O)*; Trp(7-Me) = Cc1cccc2c(C[C@H](N)C(=O)O)c[nH]c12; 2Nal = N[C@@H](Cc1ccc2ccccc2c1)C(=O)O; 3Pal = N[C@@H](Cc1cccnc1)C(=O)O; αMeL = CC(C)C[C@](C)(N)C(=O)O; Pen = CC(C)(S)[C@H](N)C(=O)O; Sar = CNCC(=O)O

For data set [1] the following is noted: disulfide bond, 20-membered ring, I2/AcOH, ACN/H2O.
Data set [2] deals with IL-23R-expressing DB cells (Homo sapiens, UniProt Q5VWK5). Put plainly: DB Cells IL23R pSTAT3 Cell Assay. The class given is cell-based. Particulars: pSTAT3 (HTRF) in IL-23R-expressing DB cells, 0.5 nM IL-23, 30 minutes; Table 6 'IL-23 Cell Data'. The method, then: IL-23 is believed to play a central role in supporting and maintaining Th17 differentiation in vivo. This process is thought to be mediated primarily through the Signal Transducer and Activator of Transcription 3 (STAT3), with phosphorylation of STAT3 (to yield pSTAT3) leading to upregulation of RORC and pro-inflammatory IL-17. […] DB cells (ATCC #CRL-2289), cultured in RPMI-1640 medium (Thermo Scientific #11875093) supplemented with 10% FBS, were added at 5 X 10E5 cells/well and incubated for 30 minutes at 37° C. in a 5% CO2 humidified incubator. Changes in phospho-STAT3 levels in the cell lysates were detected using the Cisbio HTRF pSTAT3 (Tyr705) Cellular Assay Kit (Cisbio #62AT3PEH), according to manufacturer's Two Plate Assay protocol. Where not shown or it is marked as “0”, data was not yet determined.
IL-23R-expressing DB cells, sequence (Q5VWK5 24-629 limits assumed): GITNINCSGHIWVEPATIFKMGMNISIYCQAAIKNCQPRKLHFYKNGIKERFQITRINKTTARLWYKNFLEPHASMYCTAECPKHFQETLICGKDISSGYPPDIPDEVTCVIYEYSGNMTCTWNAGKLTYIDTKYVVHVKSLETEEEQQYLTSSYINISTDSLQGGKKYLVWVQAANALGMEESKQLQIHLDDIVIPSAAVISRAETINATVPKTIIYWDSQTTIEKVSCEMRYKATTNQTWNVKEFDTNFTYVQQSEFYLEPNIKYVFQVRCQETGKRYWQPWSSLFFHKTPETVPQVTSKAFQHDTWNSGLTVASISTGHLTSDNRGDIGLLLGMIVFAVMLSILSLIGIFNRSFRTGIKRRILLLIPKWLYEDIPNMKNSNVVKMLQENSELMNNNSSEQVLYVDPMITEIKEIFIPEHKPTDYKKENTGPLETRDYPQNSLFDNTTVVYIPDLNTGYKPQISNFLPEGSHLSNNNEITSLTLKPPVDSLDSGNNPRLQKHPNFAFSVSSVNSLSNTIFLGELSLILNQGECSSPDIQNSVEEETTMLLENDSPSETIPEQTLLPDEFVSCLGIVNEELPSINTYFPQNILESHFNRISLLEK

`CC(=O)NCCCC[C@@H]1NC(=O)[C@H](Cc2c[nH]c3c(C)cccc23)NC(=O)[C@H]([C@@H](C)O)NC(=O)[C@H](CC(N)=O)NC(=O)[C@@H](NC(=O)[C@@H](CCCCNC(=O)COCCOCCNC(=O)COCCOCCNC(=O)CC[C@H](NC(=O)CCCCCCCCCCCCCCCCC(=O)O)C(=O)O)NC(C)=O)C(C)(C)SSC(C)(C)[C@@H](C(=O)N[C@@H](Cc2ccc(OCCN)cc2)C(=O)N[C@@H](Cc2ccc3ccccc3c2)C(=O)NC2(C(=O)N[C@@H](CCCCNC(C)=O)C(=O)N[C@@H](CC(N)=O)C(=O)N[C@@H](Cc3cccnc3)C(=O)N(C)CC(N)=O)CCOCC2)NC1=O` registered a ring closure, yield after HPLC in data set [1] (from Ac-dLys(PEG2PEG2gEC18OH)-Pen-Asn-Thr-7MeTrp-Lys(Ac)-Pen-AEF-2Nal-THP-Lys(Ac)-Asn-3Pya-Sar-NH2, […]) of 28%.

In data set [1] (from Ac-dLys(PEG2PEG2gEC18OH)-Pen-Asn-Thr-7MeTrp-Lys(Ac)-Pen-AEF-2Nal-THP-Lys(Ac)-Asn-3Pya-N(4AmBenzyl)Gly-NH2, 1.72 mM), `CC(=O)NCCCC[C@@H]1NC(=O)[C@H](Cc2c[nH]c3c(C)cccc23)NC(=O)[C@H]([C@@H](C)O)NC(=O)[C@H](CC(N)=O)NC(=O)[C@@H](NC(=O)[C@@H](CCCCNC(=O)COCCOCCNC(=O)COCCOCCNC(=O)CC[C@H](NC(=O)CCCCCCCCCCCCCCCCC(=O)O)C(=O)O)NC(C)=O)C(C)(C)SSC(C)(C)[C@@H](C(=O)N[C@@H](Cc2ccc(OCCN)cc2)C(=O)N[C@@H](Cc2ccc3ccccc3c2)C(=O)NC2(C(=O)N[C@@H](CCCCNC(C)=O)C(=O)N[C@@H](CC(N)=O)C(=O)N[C@@H](Cc3cccnc3)C(=O)N(CC(N)=O)Cc3ccc(C(N)=O)cc3)CCOCC2)NC1=O` returned a ring closure, yield after HPLC of 26.8%.

The compound `CC(=O)NCCCC[C@@H]1NC(=O)[C@H](Cc2c[nH]c3c(C)cccc23)NC(=O)[C@H]([C@@H](C)O)NC(=O)[C@H](CC(N)=O)NC(=O)[C@@H](NC(=O)[C@@H](CCCCNC(=O)COCCOCCNC(=O)COCCOCCNC(=O)CC[C@H](NC(=O)CCCCCCCCCOc2cccc(C(=O)O)c2)C(=O)O)NC(C)=O)C(C)(C)SSC(C)(C)[C@@H](C(=O)N[C@@H](Cc2ccc(OCCN)cc2)C(=O)N[C@@H](Cc2ccc3ccccc3c2)C(=O)NC2(C(=O)N[C@@H](CCCCNC(=O)COCCOCCNC(=O)COCCOCCNC(=O)CC[C@H](NC(=O)CCCCCCCCCOc3cccc(C(=O)O)c3)C(=O)O)C(=O)N[C@@H](CC(N)=O)C(=O)N[C@@H](Cc3cccnc3)C(=O)N(C)CC(N)=O)CCOCC2)NC1=O` displayed a ring closure, yield after HPLC in data set [1] (from Ac-dLys(PEG2PEG2gEmXOH)-Pen-Asn-Thr-7MeTrp-Lys(Ac)-Pen-AEF-2Nal-THP-Lys(PEG2PEG2gEmXOH)-Asn-3Pya-Sar-NH2, […]) of 13%. For the compound `CC(=O)NCCCC[C@@H]1NC(=O)[C@H](Cc2c[nH]c3c(C)cccc23)NC(=O)[C@H]([C@@H](C)O)NC(=O)[C@H](CC(N)=O)NC(=O)[C@@H](NC(=O)[C@@H](CCCCNC(=O)COCCOCCNC(=O)COCCOCCNC(=O)C[N+](C)(C)CCNC(=O)CC[C@H](NC(=O)CCCCCCCCCCCCCCCCC(=O)O)C(=O)O)NC(C)=O)C(C)(C)SSC(C)(C)[C@@H](C(=O)N[C@@H](Cc2ccc(OCCN)cc2)C(=O)N[C@@H](Cc2ccc3ccccc3c2)C(=O)NC2(C(=O)N[C@@H](CCCCNC(C)=O)C(=O)N[C@@H](CC(N)=O)C(=O)N[C@@H](Cc3cccnc3)C(=O)N(C)CC(N)=O)CCOCC2)NC1=O`, the ring closure, yield after HPLC in data set [1] (from Ac-dLys(PEG2PEG2SP6gEC18OH)-Pen-Asn-Thr-7MeTrp-Lys(Ac)-Pen-AEF-2Nal-THP-Lys(Ac)-Asn-3Pya-Sar-NH2, 0.343 mM) was found to be 35%. Turning to `CC(=O)NCCCC[C@@H]1NC(=O)[C@H](Cc2c[nH]c3c(C)cccc23)NC(=O)[C@H]([C@@H](C)O)NC(=O)[C@H](CC(N)=O)NC(=O)[C@@H](NC(=O)[C@@H](CCCNC(=N)N)NC(=O)COCCOCCNC(=O)COCCOCCNC(=O)CC[C@H](NC(=O)CCCCCCCCCCCCCCCCC(=O)O)C(=O)O)C(C)(C)SSC(C)(C)[C@@H](C(=O)N[C@@H](Cc2ccc(OCCN)cc2)C(=O)N[C@@H](Cc2ccc3ccccc3c2)C(=O)NC2(C(=O)N[C@@H](CCCCNC(C)=O)C(=O)N[C@@H](CC(N)=O)C(=O)N[C@@H](Cc3cccnc3)C(=O)N(C)CC(N)=O)CCOCC2)NC1=O`, the ring closure, yield after HPLC in data set [1] (from HOC18gEPEG2PEG2-dArg-Pen-Asn-Thr-7MeTrp-Lys(Ac)-Pen-AEF-2Nal-THP-Lys(Ac)-Asn-3Pya-Sar-NH2, 0.361 mM) amounted to 22%. `CC(=O)NCCCC[C@@H]1NC(=O)[C@H](Cc2c[nH]c3c(C)cccc23)NC(=O)[C@H]([C@@H](C)O)NC(=O)[C@H](CC(N)=O)NC(=O)[C@@H](NC(=O)[C@@H](CCCNC(=N)N)NC(C)=O)C(C)(C)SSC(C)(C)[C@@H](C(=O)N[C@@H](Cc2ccc(OCCN)cc2)C(=O)N[C@@H](Cc2ccc3ccccc3c2)C(=O)NC2(C(=O)N[C@@H](CCC(=O)O)C(=O)N[C@@H](CC(N)=O)C(=O)N[C@@H](Cc3cccnc3)C(=O)N(C)CC(=O)N[C@@H](CCCCNC(=O)COCCOCCNC(=O)COCCOCCNC(=O)CC[C@H](NC(=O)CCCCCCCCCCCCCCCCC(=O)O)C(=O)O)C(N)=O)CCOCC2)NC1=O` registered a ring closure, yield after HPLC in data set [1] (from Ac-dArg-Pen-Asn-Thr-Trp(7-Me)-Lys(Ac)-Pen-AEF-2Nal-THP-Glu-Asn-3Pya-Sar-Lys(PEG2PEG2gEC18OH)-NH2, 0.345 mM) of 5%.

Turning to `CC(=O)NCCCC[C@@H]1NC(=O)[C@H](Cc2c[nH]c3c(C)cccc23)NC(=O)[C@H]([C@@H](C)O)NC(=O)[C@H](CC(N)=O)NC(=O)[C@@H](NC(=O)[C@@H](CCCNC(=N)N)NC(C)=O)C(C)(C)SSC(C)(C)[C@@H](C(=O)N[C@@H](Cc2ccc(OCCN)cc2)C(=O)N[C@@H](Cc2ccc3ccccc3c2)C(=O)NC2(C(=O)N[C@@H](CCC(=O)O)C(=O)N[C@@H](CC(N)=O)C(=O)N[C@@H](Cc3cccnc3)C(=O)N(C)[C@@H](CCCCNC(=O)COCCOCCNC(=O)COCCOCCNC(=O)CC[C@H](NC(=O)CCCCCCCCCCCCCCCCC(=O)O)C(=O)O)C(N)=O)CCOCC2)NC1=O`, in data set [1] (from Ac-dArg-Pen-Asn-Thr-7MeTrp-Lys(Ac)-Pen-AEF-2Nal-THP-Glu-Asn-3Pya-MeLys(PEG2PEG2gEC18OH)-NH2, […]), the ring closure, yield after HPLC came out at 11%. As for `CC(=O)NCCCC[C@@H]1NC(=O)[C@H](Cc2c[nH]c3c(C)cccc23)NC(=O)[C@H]([C@@H](C)O)NC(=O)[C@H](CC(N)=O)NC(=O)[C@@H](NC(=O)[C@@H](CCCNC(=N)N)NC(C)=O)C(C)(C)SSC(C)(C)[C@@H](C(=O)N[C@@H](Cc2ccc(OCCN)cc2)C(=O)N[C@@H](Cc2ccc3ccccc3c2)C(=O)NC2(C(=O)N[C@@H](CCCCNC(C)=O)C(=O)N[C@@H](CC(N)=O)C(=O)N[C@@H](Cc3cccnc3)C(=O)N(CCOCCOCCNC(=O)COCCOCCNC(=O)CC[C@H](NC(=O)CCCCCCCCCCCCCCCCC(=O)O)C(=O)O)CC(N)=O)CCOCC2)NC1=O`, the ring closure, yield after HPLC in data set [1] (from Ac-dArg-Pen-Asn-Thr-7MeTrp-Lys(Ac)-Pen-AEF-2Nal-THP-Lys(Ac)-Asn-3Pya-N(PEG2PEG2gEC18OH)Gly-NH2, […]) came out at 19.6%. In data set [1] (from Ac-dLys(PEG2PEG2gEC16OH)-Pen-Asn-Thr-7MeTrp-Lys(Ac)-Pen-AEF-2Nal-THP-Lys(gEC16)-Asn-3Pya-Sar-NH2, 1.62 mM), `CCCCCCCCCCCCCCCC(=O)N[C@@H](CCC(=O)NCCCC[C@H](NC(=O)C1(NC(=O)[C@H](Cc2ccc3ccccc3c2)NC(=O)[C@H](Cc2ccc(OCCN)cc2)NC(=O)[C@H]2NC(=O)[C@H](CCCCNC(C)=O)NC(=O)[C@H](Cc3c[nH]c4c(C)cccc34)NC(=O)[C@H]([C@@H](C)O)NC(=O)[C@H](CC(N)=O)NC(=O)[C@@H](NC(=O)[C@@H](CCCCNC(=O)COCCOCCNC(=O)COCCOCCNC(=O)CC[C@H](NC(=O)CCCCCCCCCCCCCCC(=O)O)C(=O)O)NC(C)=O)C(C)(C)SSC2(C)C)CCOCC1)C(=O)N[C@@H](CC(N)=O)C(=O)N[C@@H](Cc1cccnc1)C(=O)N(C)CC(N)=O)C(=O)O` yielded a ring closure, yield after HPLC of 13%.

Regarding `COCCOCCOCCOCCOCCOCCOCCOCCOCCOCCOCCOCCC(=O)N[C@@H]1C(=O)N[C@@H](CC(N)=O)C(=O)N[C@@H]([C@@H](C)O)C(=O)N[C@@H](Cc2c[nH]c3c(C)cccc23)C(=O)N[C@@H](CCCCNC(C)=O)C(=O)N[C@H](C(=O)N[C@@H](Cc2ccccc2)C(=O)N[C@@H](Cc2ccc3ccccc3c2)C(=O)N[C@@](C)(CC(C)C)C(=O)N[C@@H](CC(C)C)C(=O)N[C@@H](CC(N)=O)C(=O)N[C@@H](Cc2cccnc2)C(=O)N(C)CC(N)=O)C(C)(C)SSC1(C)C` [Example 207, [PEG12_OMe]-[Pen]-N-T-[Trp(7-Me)]-[Lys(Ac)]-[Pen]-F-[2Nal]-[aMeLeu]-L-N-[3Pal]-[Sarc]-NH2] ({CH3O(CH2CH2O)11CH2CH2CO}-[Pen]NT[Trp(7-Me)]K(Ac)[Pen]F[2Nal][αMeL]LN[3Pal][Sar]-NH2; disulfide 1-6), the IC50 in data set [2] came to 0.631 nM. As to “MeCO-k(PEG2PEG2gE(c)C180H)-Pen*-N-T-7MeW-K(Ac)-Pen*-AEF-2Nal-THP—K(Ac)-N-3Pya-Sar-CONH2”, in data set [1] (ascorbic acid quench, 0.34 mM), the ring closure, yield after HPLC is 20%.
